Reference: patent US20250049738A1, “METHOD OF TREATMENT AND SELECTION OF PATIENTS BENEFITING FROM AGOMELATINE BASED ON EEG MEASUREMENTS” (Alto Neuroscience, Inc., priority 2023, published 2025)

Tests used:
[1] = system: patients with major depressive disorder; assay: Open-label trials of adjunctive agomelatine 25 mg at bedtime in MDD; baseline EEG models predicting change in MADRS; type: in vivo, human
[2] = system: unselected depression patients; settings: monotherapy, meta-analytically calculated; cited from earlier work
sleep measures = settings: cited from earlier work
[3] = system: performance on a trail making task; settings: versus an SSRI; cited from earlier work
circadian rhythm = settings: in vivo; cited from earlier work

## COc1ccc2cccc(CCNC(C)=O)c2c1 [agomelatine, N-[2-(7-methoxynaphthalen-1-yl)ethyl]acetamide]
[1]; EEG machine learning model
  prediction of agomelatine outcome by relative power: not predictive
[1]; EEG machine learning model, significant at week 4
  prediction of agomelatine outcome by aperiodic exponent: also predictive
[1]; EEG sample entropy machine learning model, cross-validation left-out data of training dataset, all weeks, FIG. 2A
  Cohen's d effect size, predicted responders vs predicted non-responders, change in MADRS: > 0.4
[1]; EEG sample entropy machine learning model, holdout dataset, weeks 4, 6 and 8, FIG. 2B
  Cohen's d, predicted agomelatine responders vs non-responders, observed change in MADRS: ≥ 0.4
[1]; EEG-predicted non-responders (sample entropy model), full sample
  implied agomelatine-placebo difference, d: −0.06
[1]; EEG-predicted responders (sample entropy model), week 8, full sample
  implied agomelatine-placebo response, d: 0.58
[1]; Pz low gamma sample entropy alone, high entropy patients, full sample
  implied agomelatine-placebo difference, d: 0.51
[1]; Pz low gamma sample entropy alone, low entropy patients, full sample
  implied agomelatine-placebo difference, d: 0.0
[1]; REC, Approximate Entropy, lower gamma, Week 1
  d (Cohen's d, prediction of agomelatine outcome): 0.23
[1]; REC, Approximate Entropy, lower gamma, Week 2
  d (Cohen's d, prediction of agomelatine outcome): 0.29
[1]; REC, Approximate Entropy, lower gamma, Week 4
  d (Cohen's d, prediction of agomelatine outcome): 0.46
[1]; REC, Detrended Fluctuation Analysis, lower beta, Week 1
  d (Cohen's d, prediction of agomelatine outcome): 0.49
[1]; REC, Detrended Fluctuation Analysis, lower beta, Week 2
  d (Cohen's d, prediction of agomelatine outcome): 0.44
[1]; REC, Detrended Fluctuation Analysis, lower beta, Week 4
  d (Cohen's d, prediction of agomelatine outcome): 0.41
[1]; REC, Detrended Fluctuation Analysis, upper beta, Week 1
  d (Cohen's d, prediction of agomelatine outcome): 0.19
[1]; REC, Detrended Fluctuation Analysis, upper beta, Week 2
  d (Cohen's d, prediction of agomelatine outcome): 0.20
[1]; REC, Detrended Fluctuation Analysis, upper beta, Week 4
  d (Cohen's d, prediction of agomelatine outcome): 0.25
[1]; REC, Higuchi Fractal Dimension, lower beta, Week 1
  d (Cohen's d, prediction of agomelatine outcome): 0.44
[1]; REC, Higuchi Fractal Dimension, lower beta, Week 2
  d (Cohen's d, prediction of agomelatine outcome): 0.36
[1]; REC, Higuchi Fractal Dimension, lower beta, Week 4
  d (Cohen's d, prediction of agomelatine outcome): 0.28
[1]; REC, Higuchi Fractal Dimension, lower gamma, Week 1
  d (Cohen's d, prediction of agomelatine outcome): 0.64
[1]; REC, Higuchi Fractal Dimension, lower gamma, Week 2
  d (Cohen's d, prediction of agomelatine outcome): 0.58
[1]; REC, Higuchi Fractal Dimension, lower gamma, Week 4
  d (Cohen's d, prediction of agomelatine outcome): 0.57
[1]; REC, Higuchi Fractal Dimension, upper beta, Week 1
  d (Cohen's d, prediction of agomelatine outcome): −0.29
[1]; REC, Higuchi Fractal Dimension, upper beta, Week 2
  d (Cohen's d, prediction of agomelatine outcome): −0.20
[1]; REC, Higuchi Fractal Dimension, upper beta, Week 4
  d (Cohen's d, prediction of agomelatine outcome): −0.05
[1]; REC, Higuchi Fractal Dimension, upper gamma, Week 1
  d (Cohen's d, prediction of agomelatine outcome): 0.16
[1]; REC, Higuchi Fractal Dimension, upper gamma, Week 2
  d (Cohen's d, prediction of agomelatine outcome): 0.16
[1]; REC, Higuchi Fractal Dimension, upper gamma, Week 4
  d (Cohen's d, prediction of agomelatine outcome): 0.21
[1]; REC, Katz Fractal Dimension, lower beta, Week 1
  d (Cohen's d, prediction of agomelatine outcome): 0.47
[1]; REC, Katz Fractal Dimension, lower beta, Week 2
  d (Cohen's d, prediction of agomelatine outcome): 0.42
[1]; REC, Katz Fractal Dimension, lower beta, Week 4
  d (Cohen's d, prediction of agomelatine outcome): 0.37
[1]; REC, Katz Fractal Dimension, lower gamma, Week 1
  d (Cohen's d, prediction of agomelatine outcome): 0.25
[1]; REC, Katz Fractal Dimension, lower gamma, Week 2
  d (Cohen's d, prediction of agomelatine outcome): 0.23
[1]; REC, Katz Fractal Dimension, lower gamma, Week 4
  d (Cohen's d, prediction of agomelatine outcome): 0.23
[1]; REC, Katz Fractal Dimension, upper beta, Week 1
  d (Cohen's d, prediction of agomelatine outcome): 0.42
[1]; REC, Katz Fractal Dimension, upper beta, Week 2
  d (Cohen's d, prediction of agomelatine outcome): 0.40
[1]; REC, Katz Fractal Dimension, upper beta, Week 4
  d (Cohen's d, prediction of agomelatine outcome): 0.42
[1]; REC, Katz Fractal Dimension, upper gamma, Week 1
  d (Cohen's d, prediction of agomelatine outcome): 0.04
[1]; REC, Katz Fractal Dimension, upper gamma, Week 2
  d (Cohen's d, prediction of agomelatine outcome): 0.10
[1]; REC, Katz Fractal Dimension, upper gamma, Week 4
  d (Cohen's d, prediction of agomelatine outcome): 0.23
[1]; REC, Largest Lyapunov Exponent, upper alpha, Week 1
  d (Cohen's d, prediction of agomelatine outcome): 0.10
[1]; REC, Largest Lyapunov Exponent, upper alpha, Week 2
  d (Cohen's d, prediction of agomelatine outcome): 0.12
[1]; REC, Largest Lyapunov Exponent, upper alpha, Week 4
  d (Cohen's d, prediction of agomelatine outcome): 0.18
[1]; REC, Largest Lyapunov Exponent, upper gamma, Week 1
  d (Cohen's d, prediction of agomelatine outcome): −0.02
[1]; REC, Largest Lyapunov Exponent, upper gamma, Week 2
  d (Cohen's d, prediction of agomelatine outcome): 0.08
[1]; REC, Largest Lyapunov Exponent, upper gamma, Week 4
  d (Cohen's d, prediction of agomelatine outcome): 0.29
[1]; REC, Lempel-Ziv Complexity, lower gamma, Week 1
  d (Cohen's d, prediction of agomelatine outcome): −0.06
[1]; REC, Lempel-Ziv Complexity, lower gamma, Week 2
  d (Cohen's d, prediction of agomelatine outcome): 0.01
[1]; REC, Lempel-Ziv Complexity, lower gamma, Week 4
  d (Cohen's d, prediction of agomelatine outcome): 0.15
[1]; REC, Lempel-Ziv Complexity, upper alpha, Week 1
  d (Cohen's d, prediction of agomelatine outcome): 0.21
[1]; REC, Lempel-Ziv Complexity, upper alpha, Week 2
  d (Cohen's d, prediction of agomelatine outcome): 0.17
[1]; REC, Lempel-Ziv Complexity, upper alpha, Week 4
  d (Cohen's d, prediction of agomelatine outcome): 0.13
[1]; REC, Modified Multiscale Entropy, lower alpha, Week 1
  d (Cohen's d, prediction of agomelatine outcome): 0.08
[1]; REC, Modified Multiscale Entropy, lower alpha, Week 2
  d (Cohen's d, prediction of agomelatine outcome): 0.11
[1]; REC, Modified Multiscale Entropy, lower alpha, Week 4
  d (Cohen's d, prediction of agomelatine outcome): 0.19
[1]; REC, Modified Multiscale Entropy, lower gamma, Week 1
  d (Cohen's d, prediction of agomelatine outcome): −0.09
[1]; REC, Modified Multiscale Entropy, lower gamma, Week 2
  d (Cohen's d, prediction of agomelatine outcome): 0.01
[1]; REC, Modified Multiscale Entropy, lower gamma, Week 4
  d (Cohen's d, prediction of agomelatine outcome): 0.21
[1]; REC, Modified Multiscale Entropy, upper alpha, Week 1
  d (Cohen's d, prediction of agomelatine outcome): 0.19
[1]; REC, Modified Multiscale Entropy, upper alpha, Week 2
  d (Cohen's d, prediction of agomelatine outcome): 0.25
[1]; REC, Modified Multiscale Entropy, upper alpha, Week 4
  d (Cohen's d, prediction of agomelatine outcome): 0.39
[1]; REC, Multiscale Entropy, upper alpha, Week 1
  d (Cohen's d, prediction of agomelatine outcome): 0.05
[1]; REO, Approximate Entropy, lower gamma, Week 1
  d (Cohen's d, prediction of agomelatine outcome): −0.15
[1]; REO, Approximate Entropy, lower gamma, Week 2
  d (Cohen's d, prediction of agomelatine outcome): −0.05
[1]; REO, Approximate Entropy, lower gamma, Week 4
  d (Cohen's d, prediction of agomelatine outcome): 0.09
[1]; REO, Detrended Fluctuation Analysis, upper gamma, Week 1
  d (Cohen's d, prediction of agomelatine outcome): 0.37
[1]; REO, Detrended Fluctuation Analysis, upper gamma, Week 2
  d (Cohen's d, prediction of agomelatine outcome): 0.33
[1]; REO, Detrended Fluctuation Analysis, upper gamma, Week 4
  d (Cohen's d, prediction of agomelatine outcome): 0.32
[1]; REO, Higuchi Fractal Dimension, delta, Week 1
  d (Cohen's d, prediction of agomelatine outcome): −0.15
[1]; REO, Higuchi Fractal Dimension, delta, Week 2
  d (Cohen's d, prediction of agomelatine outcome): −0.05
[1]; REO, Higuchi Fractal Dimension, delta, Week 4
  d (Cohen's d, prediction of agomelatine outcome): 0.12
[1]; REO, Higuchi Fractal Dimension, lower beta, Week 1
  d (Cohen's d, prediction of agomelatine outcome): 0.03
[1]; REO, Higuchi Fractal Dimension, lower beta, Week 2
  d (Cohen's d, prediction of agomelatine outcome): 0.03
[1]; REO, Higuchi Fractal Dimension, lower beta, Week 4
  d (Cohen's d, prediction of agomelatine outcome): 0.05
[1]; REO, Higuchi Fractal Dimension, upper gamma, Week 1
  d (Cohen's d, prediction of agomelatine outcome): 0.04
[1]; REO, Higuchi Fractal Dimension, upper gamma, Week 2
  d (Cohen's d, prediction of agomelatine outcome): 0.06
[1]; REO, Higuchi Fractal Dimension, upper gamma, Week 4
  d (Cohen's d, prediction of agomelatine outcome): 0.11
[1]; REO, Katz Fractal Dimension, delta, Week 1
  d (Cohen's d, prediction of agomelatine outcome): 0.04
[1]; REO, Katz Fractal Dimension, delta, Week 2
  d (Cohen's d, prediction of agomelatine outcome): 0.07
[1]; REO, Katz Fractal Dimension, delta, Week 4
  d (Cohen's d, prediction of agomelatine outcome): 0.13
[1]; REO, Katz Fractal Dimension, lower beta, Week 1
  d (Cohen's d, prediction of agomelatine outcome): 0.28
[1]; REO, Katz Fractal Dimension, lower beta, Week 2
  d (Cohen's d, prediction of agomelatine outcome): 0.18
[1]; REO, Katz Fractal Dimension, lower beta, Week 4
  d (Cohen's d, prediction of agomelatine outcome): 0.06
[1]; REO, Katz Fractal Dimension, upper beta, Week 1
  d (Cohen's d, prediction of agomelatine outcome): 0.24
[1]; REO, Katz Fractal Dimension, upper beta, Week 2
  d (Cohen's d, prediction of agomelatine outcome): 0.24
[1]; REO, Katz Fractal Dimension, upper beta, Week 4
  d (Cohen's d, prediction of agomelatine outcome): 0.29
[1]; REO, Largest Lyapunov Exponent, upper alpha, Week 1
  d (Cohen's d, prediction of agomelatine outcome): 0.03
[1]; REO, Largest Lyapunov Exponent, upper alpha, Week 2
  d (Cohen's d, prediction of agomelatine outcome): 0.08
[1]; REO, Largest Lyapunov Exponent, upper alpha, Week 4
  d (Cohen's d, prediction of agomelatine outcome): 0.17
[1]; REO, Largest Lyapunov Exponent, upper gamma, Week 1
  d (Cohen's d, prediction of agomelatine outcome): −0.24
[1]; REO, Largest Lyapunov Exponent, upper gamma, Week 2
  d (Cohen's d, prediction of agomelatine outcome): −0.11
[1]; REO, Largest Lyapunov Exponent, upper gamma, Week 4
  d (Cohen's d, prediction of agomelatine outcome): 0.08
[1]; REO, Lempel-Ziv Complexity, lower gamma, Week 1
  d (Cohen's d, prediction of agomelatine outcome): −0.24
[1]; REO, Lempel-Ziv Complexity, lower gamma, Week 2
  d (Cohen's d, prediction of agomelatine outcome): −0.13
[1]; REO, Lempel-Ziv Complexity, lower gamma, Week 4
  d (Cohen's d, prediction of agomelatine outcome): 0.02
[1]; REO, Lempel-Ziv Complexity, theta, Week 1
  d (Cohen's d, prediction of agomelatine outcome): 0.13
[1]; REO, Lempel-Ziv Complexity, theta, Week 2
  d (Cohen's d, prediction of agomelatine outcome): 0.14
[1]; REO, Lempel-Ziv Complexity, theta, Week 4
  d (Cohen's d, prediction of agomelatine outcome): 0.17
[1]; REO, Lempel-Ziv Complexity, upper beta, Week 1
  d (Cohen's d, prediction of agomelatine outcome): 0.19
[1]; REO, Lempel-Ziv Complexity, upper beta, Week 2
  d (Cohen's d, prediction of agomelatine outcome): 0.21
[1]; REO, Lempel-Ziv Complexity, upper beta, Week 4
  d (Cohen's d, prediction of agomelatine outcome): 0.30
[1]; REO, Modified Multiscale Entropy, upper beta, Week 1
  d (Cohen's d, prediction of agomelatine outcome): 0.08
[1]; REO, Modified Multiscale Entropy, upper beta, Week 2
  d (Cohen's d, prediction of agomelatine outcome): 0.15
[1]; REO, Modified Multiscale Entropy, upper beta, Week 4
  d (Cohen's d, prediction of agomelatine outcome): 0.31
[1]; REO, Multiscale Entropy, lower gamma, Week 1
  d (Cohen's d, prediction of agomelatine outcome): −0.41
[1]; REO, Multiscale Entropy, lower gamma, Week 2
  d (Cohen's d, prediction of agomelatine outcome): −0.21
[1]; REO, Multiscale Entropy, lower gamma, Week 4
  d (Cohen's d, prediction of agomelatine outcome): 0.05
[1]; high = z≥0.27, full study sample, all weeks, FIG. 2C
  MADRS change, high vs low Pz low-gamma sample entropy: strong and statistically significant prediction of treatment outcome across all weeks
[2]
  all-comer effect size d, treatment response to agomelatine versus placebo: 0.26
Sleep measures; in contrast to an SSRI
  sleep measures assessed using actigraphic measurements: improve sleep measures
Sleep measures; in vivo
  deep to total sleep ratio: increasing the deep to total sleep ratio
[3]
  performance on a trail making task: superior to an SSRI
Circadian rhythm
  effect on circadian rhythm: phase advance circadian rhythm
